Assay results from patent US6544727B1, “Methods and devices for the removal of psoralens from blood products” (Cerus Corporation, priority 1995, dated 2003).
Read-outs that look alike come from different tables or passages of the source.

Legend:
mouse reticulocytes = details: for PCE/RBC (%): tail vein, once per day for four days, blood on day 5; for bone marrow toxicity and micronucleus formation on dose escalation (in words): increased dose levels in male Balb/c mice
Method: Male Balb/c mice were then injected with 0.1 ml of a compound solution via the tail vein. At least 3 mice were injected per dose level. Saline only was used as a negative control. For a positive control, cyclophosphamide (cycloPP) was administered at a dose of 30 mg/kg. In the experimental group, the injections were repeated once per day for four days. In the positive control group, the sample was administered only once, on day three. On day 5, several microliters of blood were withdrawn from each subject and smeared on a glass slide. Cells were fixed in absolute methanol and stored in a slide rack.
For analysis, cells were stained with acridine orange and visualized under a fluorescence microscope by counting: (i) the number of reticulocytes per 5000 erythrocytes; and (ii) the number of micronucleated reticulocytes per 1000 reticulocytes. Reticulocytes were distinguished by their red fluorescence due to the presence of RNA. Micronuclei were distinguished by their green fluorescence due to the presence of DNA. The percentage of reticulocytes (%PCE) was then calculated. A decrease in the frequency of […] in the percentage of reticulocytes, is an indication of bone marrow toxicity. The percentage of reticulocytes with micronuclei (%PCE with MN) was also calculated. An increase in %PCE with MN is a measure of clastogenicity.
After initial results were determined, the experiment was repeated using increased dose levels, until: (i) Micronucleus formation was seen; or (ii) Bone marrow toxicity was observed; or (iii) The lethal dose was reached; or (iv) A dose of 5 g/kg was administered.

p-selectin (GMP140) = assay: GMP-140 (p-selectin) expression on platelets, flow cytometry with CD62; type: cell-based, human; details: 100 μM compound, 5 Joules/cm^2, 5 days storage; FIGS. 21C-24C
Method: To measure the effects of the present compounds and methods of decontamination on platelet function using these four indicators, four samples were prepared for each compound tested, two control samples and two containing compound. Three units of human platelets were obtained from the Sacramento Blood Center, Sacramento, Calif. These were each transferred under sterile conditions to 50 ml centrifuge tubes, then aliquots of each unit were transferred into a second set of 50 ml sterile centrifuge tubes. To each centrifuge tube containing platelet concentrate (PC), an aliquot of compound stock was added to reach a final concentration of 100 μM of compound. […] The samples were pipetted gently up and down to mix. Then aliquots (either 3 ml or 8 ml) of each sample was transferred to two sterile Teflon™ Medi-bags™ (American Fluoroseal Co., Silver Springs, Md.) (presently owned by The West Company, Lionville, Pa.). Samples were treated in one of two different sized bags, having either 3 ml or 8 ml capacity. […] For each compound tested, two control samples without compound were prepared by again removing aliquots of platelet concentrate (17 ml if using an 8 ml bag, […] if using a 3 ml bag) from the same one of the first set of 50 ml centrifuge tubes from which the compound sample was drawn, and dividing into Medibags, as before. One of each pair of Medibags containing a compound, and one of each pair of control Medibags, were illuminated for 5 Joules/cm^2 on the device described in Example 1, above. Then all experimental and control Medibags were placed on a platelet shaker for storage for 5 days. The same experiments were repeated several times to obtain more statistically meaningful data, as represented by “n”, the number of data points represented, in the graphs of FIGS. 21-24, discussed below.

R17 bacteriophage = R17 bacteriophage inactivation assay, varying compound concentration; type: cell-based; details: for R17 inactivation efficiency compared with AMT or 8-MOP (in words): varying concentration, Tables 6-9, FIGS. 6-10
Outline: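 R17 phage (10^9/mL in DMEM with 15% FBS) mixed with compound at 4–320 μM and irradiated 1–10 min. Surviving phage titred by serial dilution and plaque assay on Hfr 3000 bacteria after overnight incubation at 37 °C; controls were untreated phage, UV without compound, and compound without irradiation.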

[1] = 8 μM, starting titer approx. 7.2 logs, 1 minute irradiation (Table 7)
[2] = 16 μM, starting titer approx. 7.2 logs, 1 minute irradiation (Table 7)
[3] = 32 μM, starting titer approx. 7.2 logs, 1 minute irradiation (Table 7)
[4] = 16 μM, starting titer approx. 7.1 logs, 1 minute irradiation (Table 9)
[5] = 16 μM, starting titer approx. 7.1 logs, 1 minute irradiation = 1.2 J/cm^2 (Table 8)
[6] = 32 μM, starting titer approx. 7.1 logs, 1 minute irradiation = 1.2 J/cm^2 (Table 8)

## Cc1cc(=O)oc2c(C)c3oc(COCCN)c(C)c3cc12 [Compound 18, 5′-(4-amino-2-oxa)butyl-4,4′,8-trimethylpsoralen]
Mouse reticulocytes; 3.75 mg/kg
  PCE/RBC (%): 3.61 ± 1.14%
Mouse reticulocytes; 7.5 mg/kg
  PCE/RBC (%): 3.59 ± 0.33%
Mouse reticulocytes; 20 mg/kg
  PCE/RBC (%): 3.48 ± 0.79%
Mouse reticulocytes
  bone marrow toxicity and micronucleus formation on dose escalation (in words): the acutely lethal dose was reached before there were any signs of bone marrow toxicity or micronucleus formation
p-selectin (GMP140)
  GMP-140 expression, treated sample (PCD) against day 5 untreated control (in words): notable increase above the control

## Cc1oc2c(C)c3oc(=O)cc(C)c3cc2c1COCCN [Compound 2, 4′-(4-amino-2-oxa)butyl-4,5′,8-trimethylpsoralen]
R17 bacteriophage; [1]
  R17 Log Kill: 3.8 log
R17 bacteriophage; [2]
  R17 Log Kill: >6.2 log
R17 bacteriophage; [3]
  R17 Log Kill: >6.2 log
R17 bacteriophage
  R17 inactivation efficiency compared with AMT or 8-MOP (in words): significantly higher inactivation efficiency than does AMT
Mouse reticulocytes
  bone marrow toxicity and micronucleus formation on dose escalation (in words): the acutely lethal dose was reached before there were any signs of bone marrow toxicity or micronucleus formation
p-selectin (GMP140)
  GMP-140 expression, treated sample (PCD) against day 5 untreated control (in words): little or no difference

## Cc1oc2c(C)c3oc(=O)cc(C)c3cc2c1CNCCCCN [Compound 6, 4′-(6-amino-2-aza)hexyl-4,5′,8-trimethylpsoralen]
R17 bacteriophage; 8 μM, starting titer approx. 7.1 logs, 1 minute irradiation (Table 9)
  R17 Log Kill: >6 log
R17 bacteriophage; [4]
  R17 Log Kill: >6 log
R17 bacteriophage; [5]
  R17 Log Kill: >6.1 log
R17 bacteriophage; [6]
  R17 Log Kill: >6.1 log
R17 bacteriophage; 64 μM, starting titer approx. 7.1 logs, 1 minute irradiation = 1.2 J/cm^2 (Table 8)
  R17 Log Kill: >6.1 log
R17 bacteriophage
  R17 inactivation efficiency compared with AMT or 8-MOP (in words): significantly higher inactivation efficiency than does AMT
Mouse reticulocytes; 30 mg/kg
  PCE/RBC (%): 3.61 ± 0.12%
Mouse reticulocytes; 45 mg/kg
  PCE/RBC (%): 3.79 ± 0.41%
Mouse reticulocytes
  bone marrow toxicity and micronucleus formation on dose escalation (in words): the acutely lethal dose was reached before there were any signs of bone marrow toxicity or micronucleus formation
p-selectin (GMP140)
  GMP-140 expression, treated sample (PCD) against day 5 untreated control (in words): little or no difference

## Cc1oc2c(C)c3oc(=O)cc(C)c3cc2c1CN [AMT, 4′-Aminomethyl-4,5′,8-trimethylpsoralen, reference compound]
R17 bacteriophage; [1]
  R17 Log Kill: 2.7 log
R17 bacteriophage; [4]
  R17 Log Kill: >6 log
R17 bacteriophage; [5]
  R17 Log Kill: 4.5 log
R17 bacteriophage; [2]
  R17 Log Kill: 4.6 log
R17 bacteriophage; 32 μM, starting titer approx. 7.1 logs, 1 minute irradiation (Table 9)
  R17 Log Kill: >6 log
R17 bacteriophage; [6]
  R17 Log Kill: 4.8 log
R17 bacteriophage; [3]
  R17 Log Kill: >6.2 log
R17 bacteriophage; 32 μM, starting titer approx. 7.5 logs, 1 minute irradiation
  R17 log kill (32 μM): >6.7 log
